Experiments:
[1] = molecular target: Serine/threonine-protein kinase MARK2 (Homo sapiens) (UniProt Q7KZI7); settings: Compound concentration 1000.0 nM
[2] = molecular target: Ephrin type-A receptor 7 (Homo sapiens) (UniProt Q15375); settings: Compound concentration 1000.0 nM
[3] = molecular target: Serine/threonine-protein kinase D2 (Homo sapiens) (UniProt Q9BZL6); settings: Compound concentration 1000.0 nM
[4] = molecular target: Serine/threonine-protein kinase 33 (Homo sapiens) (UniProt Q9BYT3); settings: Compound concentration 1000.0 nM
[5] = molecular target: SRSF protein kinase 1 (Homo sapiens) (UniProt Q96SB4); settings: Compound concentration 1000.0 nM
Chain of SRSF protein kinase 1 (Homo sapiens) (Q96SB4 whole entry): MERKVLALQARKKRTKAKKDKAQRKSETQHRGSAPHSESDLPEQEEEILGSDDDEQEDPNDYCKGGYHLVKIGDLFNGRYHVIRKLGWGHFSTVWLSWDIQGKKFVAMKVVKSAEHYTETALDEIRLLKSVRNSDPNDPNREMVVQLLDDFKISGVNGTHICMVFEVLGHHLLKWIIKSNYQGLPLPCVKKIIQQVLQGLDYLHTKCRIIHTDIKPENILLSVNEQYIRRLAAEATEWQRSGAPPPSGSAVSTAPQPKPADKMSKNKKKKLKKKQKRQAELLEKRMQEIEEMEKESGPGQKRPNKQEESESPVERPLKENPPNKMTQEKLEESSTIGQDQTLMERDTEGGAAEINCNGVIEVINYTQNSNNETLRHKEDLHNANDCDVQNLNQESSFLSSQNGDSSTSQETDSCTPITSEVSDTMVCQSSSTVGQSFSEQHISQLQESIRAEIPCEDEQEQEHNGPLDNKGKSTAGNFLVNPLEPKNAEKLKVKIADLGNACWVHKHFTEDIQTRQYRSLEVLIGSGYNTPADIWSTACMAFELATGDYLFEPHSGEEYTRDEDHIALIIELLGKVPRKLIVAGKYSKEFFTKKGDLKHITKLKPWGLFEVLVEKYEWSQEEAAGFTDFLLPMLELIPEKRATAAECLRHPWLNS

[6] = molecular target: Serine/threonine-protein kinase Nek3 (Homo sapiens) (UniProt P51956); settings: Compound concentration 1000.0 nM
[7] = molecular target: Serine/threonine-protein kinase 4 (Homo sapiens) (UniProt Q13043); settings: Compound concentration 1000.0 nM
[8] = molecular target: Death-associated protein kinase 3 (Homo sapiens) (UniProt O43293); settings: Compound concentration 1000.0 nM
[9] = molecular target: D(3) dopamine receptor (Homo sapiens) (UniProt P35462); settings: Compound concentration 10.0 uM
[10] = molecular target: Ephrin type-A receptor 4 (Homo sapiens) (UniProt P54764); settings: Compound concentration 1000.0 nM
[11] = molecular target: Serine/threonine-protein kinase PAK 3 (Homo sapiens) (UniProt O75914); settings: Compound concentration 1000.0 nM
[12] = molecular target: cAMP-dependent protein kinase catalytic subunit PRKX (Homo sapiens) (UniProt P51817); settings: Compound concentration 1000.0 nM
Chain of cAMP-dependent protein kinase catalytic subunit PRKX (Homo sapiens) (P51817 whole entry): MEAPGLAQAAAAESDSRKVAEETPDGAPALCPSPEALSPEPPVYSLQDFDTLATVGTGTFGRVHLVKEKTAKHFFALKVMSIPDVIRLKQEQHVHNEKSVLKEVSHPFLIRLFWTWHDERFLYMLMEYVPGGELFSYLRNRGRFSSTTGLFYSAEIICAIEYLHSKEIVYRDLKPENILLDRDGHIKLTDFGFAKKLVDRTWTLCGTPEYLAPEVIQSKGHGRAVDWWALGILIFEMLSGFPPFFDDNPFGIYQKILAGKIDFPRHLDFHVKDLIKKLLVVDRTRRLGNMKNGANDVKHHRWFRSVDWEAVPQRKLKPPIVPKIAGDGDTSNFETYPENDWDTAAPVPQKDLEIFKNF

[13] = molecular target: Serine/threonine-protein kinase BRSK2 (Homo sapiens) (UniProt Q8IWQ3); settings: Compound concentration 1000.0 nM
[14] = molecular target: Tyrosine-protein kinase ABL1 (Homo sapiens) (UniProt P00519); settings: Compound concentration 1000.0 nM
[15] = molecular target: Serine/threonine-protein kinase N2 (Homo sapiens) (UniProt Q16513); settings: Compound concentration 1000.0 nM
[16] = molecular target: Focal adhesion kinase 1 (Homo sapiens) (UniProt Q05397); settings: Compound concentration 1000.0 nM
Chain of Focal adhesion kinase 1 (Homo sapiens) (Q05397 2-1052 limits assumed): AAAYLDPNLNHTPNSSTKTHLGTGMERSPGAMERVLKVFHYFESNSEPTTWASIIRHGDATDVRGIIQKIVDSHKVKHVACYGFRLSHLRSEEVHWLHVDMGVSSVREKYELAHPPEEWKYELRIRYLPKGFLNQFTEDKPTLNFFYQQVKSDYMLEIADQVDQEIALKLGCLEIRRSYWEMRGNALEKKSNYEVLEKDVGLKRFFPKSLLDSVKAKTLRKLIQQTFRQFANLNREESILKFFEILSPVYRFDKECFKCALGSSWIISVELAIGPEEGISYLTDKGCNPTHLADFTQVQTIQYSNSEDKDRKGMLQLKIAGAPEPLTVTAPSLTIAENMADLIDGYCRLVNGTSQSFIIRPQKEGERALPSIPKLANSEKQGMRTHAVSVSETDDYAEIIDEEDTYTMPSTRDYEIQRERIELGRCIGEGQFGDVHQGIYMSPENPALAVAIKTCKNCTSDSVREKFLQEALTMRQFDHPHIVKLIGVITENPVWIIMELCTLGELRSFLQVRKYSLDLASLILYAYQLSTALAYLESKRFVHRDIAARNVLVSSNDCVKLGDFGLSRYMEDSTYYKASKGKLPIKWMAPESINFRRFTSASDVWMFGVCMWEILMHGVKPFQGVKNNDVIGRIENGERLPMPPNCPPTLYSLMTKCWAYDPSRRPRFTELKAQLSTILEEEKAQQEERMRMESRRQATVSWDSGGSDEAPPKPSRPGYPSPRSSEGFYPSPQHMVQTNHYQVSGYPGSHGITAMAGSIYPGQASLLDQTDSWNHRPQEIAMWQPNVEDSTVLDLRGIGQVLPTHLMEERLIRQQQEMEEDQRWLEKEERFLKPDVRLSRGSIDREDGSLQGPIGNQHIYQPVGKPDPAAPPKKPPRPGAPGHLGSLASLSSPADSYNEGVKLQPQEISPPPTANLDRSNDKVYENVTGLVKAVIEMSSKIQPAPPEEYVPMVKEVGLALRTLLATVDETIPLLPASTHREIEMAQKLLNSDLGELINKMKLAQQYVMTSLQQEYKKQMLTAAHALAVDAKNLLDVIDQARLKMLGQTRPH

[17] = molecular target: Receptor tyrosine-protein kinase erbB-2 (Homo sapiens) (UniProt P04626); settings: Compound concentration 1000.0 nM
[18] = molecular target: Calcium/calmodulin-dependent protein kinase type 1G (Homo sapiens) (UniProt Q96NX5); settings: Compound concentration 1000.0 nM
[19] = test system: Mast/stem cell growth factor receptor Kit (Homo sapiens), P10721 [D816V]; settings: Compound concentration 1000.0 nM
[20] = test system: Receptor-type tyrosine-protein kinase FLT3 (Homo sapiens), P36888 [UNDEFINED MUTATION]; settings: Compound concentration 1000.0 nM
[21] = molecular target: Casein kinase I isoform gamma-2 (Homo sapiens) (UniProt P78368); settings: Compound concentration 1000.0 nM
[22] = molecular target: Ribosomal protein S6 kinase alpha-4 (Homo sapiens) (UniProt O75676); settings: Compound concentration 1000.0 nM
[23] = molecular target: Protein kinase C epsilon type (Homo sapiens) (UniProt Q02156); settings: Compound concentration 1000.0 nM
[24] = molecular target: Tyrosine-protein kinase JAK3 (Homo sapiens) (UniProt P52333); settings: Compound concentration 1000.0 nM
[25] = test system: Mast/stem cell growth factor receptor Kit (Homo sapiens), P10721 [V559D,V654A]; settings: Compound concentration 1000.0 nM
[26] = test system: Receptor-type tyrosine-protein kinase FLT3 (Homo sapiens), P36888 [D835V]; settings: Compound concentration 1000.0 nM
[27] = test system: Receptor-type tyrosine-protein kinase FLT3 (Homo sapiens), P36888 [R834Q]; settings: Compound concentration 1000.0 nM
[28] = test system: Mast/stem cell growth factor receptor Kit (Homo sapiens), P10721 [A829P]; settings: Compound concentration 1000.0 nM
[29] = molecular target: Serine/threonine-protein kinase MRCK gamma (Homo sapiens) (UniProt Q6DT37); settings: Compound concentration 1000.0 nM
[30] = molecular target: ALK tyrosine kinase receptor (Homo sapiens) (UniProt Q9UM73); settings: Compound concentration 1000.0 nM
[31] = molecular target: Serine/threonine-protein kinase pim-1 (Homo sapiens) (UniProt P11309); settings: Compound concentration 1000.0 nM
[32] = molecular target: Mitogen-activated protein kinase kinase kinase 1 (Homo sapiens) (UniProt Q13233); settings: Compound concentration 1000.0 nM
[33] = molecular target: Ribosomal protein S6 kinase beta-1 (Homo sapiens) (UniProt P23443); settings: Compound concentration 1000.0 nM
[34] = molecular target: Ribosomal protein S6 kinase alpha-1 (Homo sapiens) (UniProt Q15418); settings: Compound concentration 1000.0 nM
[35] = molecular target: Tyrosine-protein kinase Fyn (Homo sapiens) (UniProt P06241); settings: Compound concentration 1000.0 nM
Chain of Tyrosine-protein kinase Fyn (Homo sapiens) (P06241 2-537 limits assumed): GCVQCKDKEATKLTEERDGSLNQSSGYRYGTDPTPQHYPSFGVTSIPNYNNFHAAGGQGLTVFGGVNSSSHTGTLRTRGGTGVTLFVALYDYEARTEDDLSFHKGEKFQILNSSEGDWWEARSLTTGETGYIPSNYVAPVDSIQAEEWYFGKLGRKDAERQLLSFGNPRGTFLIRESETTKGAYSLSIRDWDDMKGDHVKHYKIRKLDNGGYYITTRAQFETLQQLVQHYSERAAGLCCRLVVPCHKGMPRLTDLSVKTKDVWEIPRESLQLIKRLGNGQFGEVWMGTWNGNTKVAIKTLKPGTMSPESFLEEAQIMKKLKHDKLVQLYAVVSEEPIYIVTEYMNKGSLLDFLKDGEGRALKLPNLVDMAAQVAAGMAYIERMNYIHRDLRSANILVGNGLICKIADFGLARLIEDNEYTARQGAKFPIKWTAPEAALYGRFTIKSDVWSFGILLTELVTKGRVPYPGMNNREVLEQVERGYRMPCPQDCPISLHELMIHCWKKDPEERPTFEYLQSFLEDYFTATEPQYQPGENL

[36] = molecular target: Serine/threonine-protein kinase STK11 (Homo sapiens) (UniProt Q15831); settings: Compound concentration 1000.0 nM
Chain of Serine/threonine-protein kinase STK11 (Homo sapiens) (Q15831 whole entry): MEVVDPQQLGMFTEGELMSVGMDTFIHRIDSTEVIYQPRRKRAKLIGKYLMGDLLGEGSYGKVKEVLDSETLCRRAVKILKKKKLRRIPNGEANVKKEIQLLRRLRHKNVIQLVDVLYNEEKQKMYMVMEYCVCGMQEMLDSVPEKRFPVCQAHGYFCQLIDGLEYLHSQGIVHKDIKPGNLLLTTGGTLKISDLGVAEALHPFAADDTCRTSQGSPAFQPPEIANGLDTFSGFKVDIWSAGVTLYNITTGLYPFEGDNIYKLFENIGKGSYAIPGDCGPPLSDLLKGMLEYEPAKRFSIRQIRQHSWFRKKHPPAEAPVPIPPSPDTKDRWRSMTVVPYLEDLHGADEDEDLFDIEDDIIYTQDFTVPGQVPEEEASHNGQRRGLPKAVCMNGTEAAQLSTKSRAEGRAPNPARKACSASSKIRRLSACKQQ

[37] = molecular target: Serine/threonine-protein kinase 35 (Homo sapiens) (UniProt Q8TDR2); settings: Compound concentration 1000.0 nM
[38] = molecular target: Protein-tyrosine kinase 6 (Homo sapiens) (UniProt Q13882); settings: Compound concentration 1000.0 nM
Chain of Protein-tyrosine kinase 6 (Homo sapiens) (Q13882 whole entry, looked up): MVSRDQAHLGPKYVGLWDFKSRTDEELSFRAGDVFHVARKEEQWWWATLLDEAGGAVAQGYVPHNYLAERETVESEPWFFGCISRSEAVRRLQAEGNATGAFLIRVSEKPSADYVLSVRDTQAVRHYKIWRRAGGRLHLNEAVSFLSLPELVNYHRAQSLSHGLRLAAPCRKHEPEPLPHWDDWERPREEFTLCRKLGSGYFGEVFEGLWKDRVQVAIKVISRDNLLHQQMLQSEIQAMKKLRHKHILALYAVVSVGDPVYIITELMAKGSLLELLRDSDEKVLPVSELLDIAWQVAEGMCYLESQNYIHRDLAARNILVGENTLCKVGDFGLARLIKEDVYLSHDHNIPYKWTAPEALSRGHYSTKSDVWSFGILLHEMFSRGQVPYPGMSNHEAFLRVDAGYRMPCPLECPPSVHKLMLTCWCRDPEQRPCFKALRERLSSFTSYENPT

[39] = molecular target: Serine/threonine-protein kinase ULK1 (Homo sapiens) (UniProt O75385); settings: Compound concentration 1000.0 nM
[40] = molecular target: Alpha-1B adrenergic receptor (Homo sapiens) (UniProt P35368); settings: Compound concentration 10.0 uM
[41] = molecular target: Calcium/calmodulin-dependent protein kinase type II subunit beta (Homo sapiens) (UniProt Q13554); settings: Compound concentration 1000.0 nM
Chain of Calcium/calmodulin-dependent protein kinase type II subunit beta (Homo sapiens) (Q13554 whole entry): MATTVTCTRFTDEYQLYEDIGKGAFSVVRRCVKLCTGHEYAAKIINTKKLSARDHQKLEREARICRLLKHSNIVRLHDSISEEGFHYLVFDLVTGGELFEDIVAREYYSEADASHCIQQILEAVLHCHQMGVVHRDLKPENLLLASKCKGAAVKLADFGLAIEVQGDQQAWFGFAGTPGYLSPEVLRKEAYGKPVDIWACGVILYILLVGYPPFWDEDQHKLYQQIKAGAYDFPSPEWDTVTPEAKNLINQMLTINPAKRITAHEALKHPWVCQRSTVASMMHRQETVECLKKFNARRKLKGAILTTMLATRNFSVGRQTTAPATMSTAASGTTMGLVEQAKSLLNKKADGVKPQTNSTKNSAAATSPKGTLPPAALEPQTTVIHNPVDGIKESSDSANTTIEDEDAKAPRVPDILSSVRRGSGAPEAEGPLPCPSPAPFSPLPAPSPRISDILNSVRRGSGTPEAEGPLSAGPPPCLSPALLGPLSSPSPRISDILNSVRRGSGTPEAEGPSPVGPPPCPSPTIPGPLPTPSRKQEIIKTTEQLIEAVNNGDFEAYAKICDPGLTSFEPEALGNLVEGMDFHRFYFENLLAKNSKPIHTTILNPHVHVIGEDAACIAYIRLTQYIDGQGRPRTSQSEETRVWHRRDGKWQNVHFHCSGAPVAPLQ

[42] = test system: Mast/stem cell growth factor receptor Kit (Homo sapiens), P10721 [D816H]; settings: Compound concentration 1000.0 nM
[43] = molecular target: Fibroblast growth factor receptor 1 (Homo sapiens) (UniProt P11362); settings: Compound concentration 1000.0 nM
[44] = molecular target: Mitotic checkpoint serine/threonine-protein kinase BUB1 (Homo sapiens) (UniProt O43683); settings: Compound concentration 1000.0 nM
[45] = molecular target: Ribosomal protein S6 kinase alpha-5 (Homo sapiens) (UniProt O75582); settings: Compound concentration 1000.0 nM

Chain of Serine/threonine-protein kinase MARK2 (Homo sapiens) (Q7KZI7 whole entry): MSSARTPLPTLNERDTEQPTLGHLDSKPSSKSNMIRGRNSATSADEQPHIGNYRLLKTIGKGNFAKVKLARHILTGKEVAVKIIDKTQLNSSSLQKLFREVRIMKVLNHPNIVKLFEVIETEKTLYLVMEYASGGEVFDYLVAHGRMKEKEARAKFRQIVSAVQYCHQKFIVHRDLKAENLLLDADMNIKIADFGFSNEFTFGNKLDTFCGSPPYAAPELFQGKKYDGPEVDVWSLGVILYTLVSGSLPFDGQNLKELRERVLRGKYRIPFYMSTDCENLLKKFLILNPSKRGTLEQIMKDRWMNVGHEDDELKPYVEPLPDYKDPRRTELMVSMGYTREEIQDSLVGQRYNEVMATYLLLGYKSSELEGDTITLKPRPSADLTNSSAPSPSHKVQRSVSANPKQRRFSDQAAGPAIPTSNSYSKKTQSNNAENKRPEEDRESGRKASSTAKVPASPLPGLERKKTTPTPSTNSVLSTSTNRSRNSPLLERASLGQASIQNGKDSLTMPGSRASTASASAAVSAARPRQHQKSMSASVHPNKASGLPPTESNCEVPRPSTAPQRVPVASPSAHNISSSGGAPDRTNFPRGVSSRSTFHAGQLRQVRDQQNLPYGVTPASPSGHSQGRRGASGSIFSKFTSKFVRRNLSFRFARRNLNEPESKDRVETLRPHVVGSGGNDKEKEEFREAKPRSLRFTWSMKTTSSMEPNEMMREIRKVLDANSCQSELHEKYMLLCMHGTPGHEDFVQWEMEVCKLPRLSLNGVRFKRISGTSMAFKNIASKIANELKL

Nc1cnc(N2CCc3cc(S(=O)(=O)Nc4c(F)cc(Cl)cc4F)cc(N4CCCC4=O)c32)nc1
residual activity [1]: 74%
residual activity [2]: 85%
residual activity [3]: 100%
residual activity [4]: 80%
residual activity [5]: 81%
residual activity [6]: 100%
residual activity [7]: 100%
residual activity [8]: 83%
inhibition [9]: 7.41%
residual activity [10]: 100%
residual activity [11]: 100%
residual activity [12]: 99%
residual activity [13]: 80%
residual activity [14]: 97%
residual activity [15]: 100%
residual activity [16]: 99%
residual activity [17]: 100%
residual activity [18]: 100%
residual activity [19]: 100%
residual activity [20]: 96%
residual activity [21]: 88%
residual activity [22]: 96%
residual activity [23]: 100%
residual activity [24]: 100%
residual activity [25]: 100%
residual activity [26]: 100%
residual activity [27]: 77%
residual activity [28]: 100%
residual activity [29]: 100%
residual activity [30]: 100%
residual activity [31]: 88%
residual activity [32]: 100%
residual activity [33]: 83%
residual activity [34]: 100%
residual activity [35]: 58%
residual activity [36]: 100%
residual activity [37]: 100%
residual activity [38]: 100%
residual activity [39]: 95%
inhibition [40]: 4.68%
residual activity [41]: 100%
residual activity [42]: 100%
residual activity [43]: 88%
residual activity [44]: 100%
residual activity [45]: 100%

Cn1nc(C(F)(F)F)cc1-c1cnc(N2CCc3cc(S(=O)(=O)Nc4c(F)cc(Cl)cc4F)cc(N4CCCC4=O)c32)nc1 [TP-020]
residual activity [1]: 100%
residual activity [2]: 78%
residual activity [3]: 95%
residual activity [4]: 100%
residual activity [5]: 77%
residual activity [6]: 90%
residual activity [7]: 92%
residual activity [8]: 97%
inhibition [9]: 2.14%
residual activity [10]: 97%
residual activity [11]: 77%
residual activity [12]: 97%
residual activity [13]: 73%
residual activity [14]: 95%
residual activity [15]: 82%
residual activity [16]: 98%
residual activity [17]: 79%
residual activity [18]: 100%
residual activity [19]: 100%
residual activity [20]: 32%
residual activity [21]: 100%
residual activity [22]: 85%
residual activity [23]: 96%
residual activity [24]: 81%
residual activity [25]: 89%
residual activity [26]: 91%
residual activity [27]: 97%
residual activity [28]: 80%
residual activity [29]: 100%
residual activity [30]: 80%
residual activity [31]: 97%
residual activity [32]: 70%
residual activity [33]: 78%
residual activity [34]: 96%
residual activity [35]: 94%
residual activity [36]: 100%
residual activity [37]: 100%
residual activity [38]: 90%
residual activity [39]: 79%
inhibition [40]: 4.33%
residual activity [41]: 92%
residual activity [42]: 77%
residual activity [43]: 99%
residual activity [44]: 87%
residual activity [45]: 97%

Source: ChEMBL document CHEMBL4507302, “Data for DCP probe TP-020” (2021)
